From paper PMC6355826 (EBioMedicine, 2018)

Columns and labels:
[1] = molecular target: T1, methionine adenosyltransferase 2A (MAT2A) (Homo sapiens, UniProt P31153); experiment: microscale thermophoresis; type: binding
[2] = molecular target: T1, methionine adenosyltransferase 2A (MAT2A); experiment: HPLC SAM synthesis assay with purified MAT2A; type: biochemical

T1 sequence (P31153 whole entry): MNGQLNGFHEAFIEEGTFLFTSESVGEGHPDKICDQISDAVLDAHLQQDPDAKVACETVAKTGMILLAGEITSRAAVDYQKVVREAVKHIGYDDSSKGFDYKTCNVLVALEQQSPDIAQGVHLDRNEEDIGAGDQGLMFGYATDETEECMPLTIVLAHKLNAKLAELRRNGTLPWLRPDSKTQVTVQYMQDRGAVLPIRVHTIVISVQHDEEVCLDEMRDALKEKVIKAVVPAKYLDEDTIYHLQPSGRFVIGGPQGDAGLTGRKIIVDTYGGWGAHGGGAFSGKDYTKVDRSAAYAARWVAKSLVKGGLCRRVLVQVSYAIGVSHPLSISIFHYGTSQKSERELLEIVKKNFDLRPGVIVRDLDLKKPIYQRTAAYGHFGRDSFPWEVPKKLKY

Row | Kd [1] | SMILES | HPLC SAM synthesis assay with purified MAT2A [2]
1 | 129 ± 28 nM | CC(=O)O[C@@H]1CC[C@@]2(C)[C@@H](CC[C@]3(C)[C@@H]2C(=O)C=C2[C@@H]4[C@@H](C)[C@H](C)CC[C@]4(C)CC[C@]23C)[C@@]1(C)C(=O)O [compound 1, AKBA] | –
2 | – | Nc1ncnc2c1ncn2[C@@H]1O[C@H](COP(=O)(O)OP(=O)(O)OP(=O)(O)O)[C@@H](O)[C@H]1O [ATP] | MAT2A was incubated with its substrates which were methionine and ATP, and SAM was formed
3 | – | CSCC[C@H](N)C(=O)O [methionine] | MAT2A was incubated with its substrates which were methionine and ATP, and SAM was formed
